Data reported in patent US20050148631A1, “Amino heterocyclyl inhibitors of 11-beta-hydroxy steroid dehydrogenase type 1” (AGOURON PHARMACEUTICALS, INC., priority 2003, published 2005).
Like-named read-outs stand apart in the source and are kept apart here.

What was measured:
11β-hsd-1 enzyme [1] = target: T1, 11β-hsd-1 enzyme (Homo sapiens, UniProt P28845); experiment: 11β-hsd-1 enzyme assay, percentage of inhibition (3H-cortisone to cortisol, radio-HPLC); type: biochemical
11β-hsd-1 enzyme [2] = target: T1, 11β-hsd-1 enzyme; experiment: 11β-hsd-1 enzyme assay, Kiapp determination (3H-cortisone to cortisol, radio-HPLC); type: biochemical; conditions: read-out: Ki app
[3] = compound at 0.1 uM, read-out: % inh @ 0.1 uM
[4] = 0.1 uM, read-out: % inh @ 0.1 uM

T1 sequence (P28845 whole entry, species assumed): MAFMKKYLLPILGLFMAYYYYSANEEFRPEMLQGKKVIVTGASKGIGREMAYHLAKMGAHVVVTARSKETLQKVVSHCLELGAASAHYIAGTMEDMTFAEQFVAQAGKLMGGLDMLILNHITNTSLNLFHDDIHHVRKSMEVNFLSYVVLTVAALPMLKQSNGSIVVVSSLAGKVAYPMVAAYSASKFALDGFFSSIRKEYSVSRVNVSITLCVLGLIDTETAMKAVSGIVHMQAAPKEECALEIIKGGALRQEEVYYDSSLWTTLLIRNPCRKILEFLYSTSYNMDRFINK

| SMILES | inhibition at 0.1 µM (11β-hsd-1 enzyme [1]; [3]) [%] | Ki (11β-hsd-1 enzyme [2]; apparent Ki, 11β-hsd-1 enzyme) [nM] | inhibition at 0.1 µM (11β-hsd-1 enzyme [1]; [4]) [%] | Ki (11β-hsd-1 enzyme [2]) [nM] | inhibition at 0.1 µM (11β-hsd-1 enzyme [1]; read-out: % inh @ 0.1 uM, compound at 0.1 uM) [%] |
| --- | --- | --- | --- | --- | --- |
| N#Cc1ccc(C2CCN(S(=O)(=O)Nc3cccc(N)n3)CC2)cc1 [Example 317, 4-(4-Cyano-phenyl)-piperidine-1-sulfonic acid (6-amino-pyridin-2-yl)-amide] | 100 | < 1 | – | – | – |
| COc1cccc(-c2ccc(S(=O)(=O)Nc3cccc(C)n3)cc2)c1 [Example 160] | – | – | 66.8 | 36.2 | – |
| Nc1cccc(NS(=O)(=O)c2ccc(-c3ccc(Cl)cc3)cc2)n1 [Example 42] | – | – | 96 | 4.6 | – |
| CCc1cccc(NS(=O)(=O)c2ccc(C(F)(F)F)cc2)n1 [Example 71] | – | – | 66 | 34.6 | – |
| Cc1cccc(NS(=O)(=O)c2ccc(-c3cc(F)cc(F)c3)cc2C)n1 [Example 178] | – | – | 95 | 8.2 | – |
| Cc1cccc(NS(=O)(=O)c2ccc(-c3cc(F)cc(F)c3)c(C)c2)n1 [Example 225] | 28 | 16 | – | – | – |
| Cc1cccc(NS(=O)(=O)c2ccc(-c3ccc(C#N)cc3)cc2)n1 [Example 33, 4′-Cyano-biphenyl-4-sulfonic acid (6-methyl-pyridin-2-yl)-amide] | – | – | 97 | 6.4 | – |
| Cc1cccc(NS(=O)(=O)c2ccc(-c3ccc(C#N)c(Cl)c3)cc2)n1 [Example 274] | 94.4 | 3.5 | – | – | – |
| Cc1cccc(NS(=O)(=O)c2ccc(-c3cc(Cl)cc(Cl)c3)cc2C)n1 [Example 174] | – | – | 98 | 3.2 | – |
| COc1cc(-c2ccc(S(=O)(=O)Nc3cccc(C)n3)cc2)ccc1C#N [Example 270, 4′-Cyano-3′-methoxy-biphenyl-4-sulfonic acid (6-methyl-pyridin-2-yl)-amide] | 94.8 | 10.7 | – | – | – |
| Cc1cccc(NS(=O)(=O)N2CCC(c3ccccc3)CC2)n1 [Example 306] | 100 | 7.4 | – | – | – |
| Cc1cccc(NS(=O)(=O)c2ccc(-c3ccc(F)cc3C)cc2)n1 [Example 253] | 79.3 | 33.4 | – | – | – |
| Nc1cccc(NS(=O)(=O)c2ccc(C(F)(F)F)cc2)n1 [Example 39] | – | – | 96 | 9 | – |
| Cc1cccc(NS(=O)(=O)c2ccc(-c3ccccc3C#N)cc2C)n1 [Example 195] | – | – | 82 | 17 | – |
| CCc1cccc(NS(=O)(=O)N2CCc3ccccc3C2)n1 [Example 303] | 89.3 | 7.6 | – | – | – |
| Cc1cccc(NS(=O)(=O)c2ccc(-c3cccc(C#N)c3)cc2C)n1 [Example 177] | – | – | 85 | 20 | – |
| Cc1cccc(NS(=O)(=O)c2ccc(-c3ccc(C#N)cc3)cc2F)n1 [Example 283, 4′-Cyano-3-fluoro-biphenyl-4-sulfonic acid (6-methyl-pyridin-2-yl)-amide] | 100 | 5.7 | – | – | – |
| Cc1cccc(NS(=O)(=O)c2ccc(-c3ccccc3C)cc2C)n1 [Example 172] | – | – | 82 | 48 | – |
| Cc1cccc(NS(=O)(=O)c2ccc(-c3ccc(Cl)cc3Cl)c(C)c2)n1 [Example 221] | 87 | 18 | – | – | – |
| Cc1c(Cl)cccc1S(=O)(=O)Nc1cccc(N)n1 [Example 41] | – | – | 94 | 17 | – |
| Cc1cccc(NS(=O)(=O)/C=C/c2ccccc2)n1 [Example 109] | – | – | 57.2 | 270 | – |
| Cc1cccc(NS(=O)(=O)c2ccc(-c3ccc(C(C)C)cc3)cc2C)n1 [Example 190] | – | – | 78 | 35 | – |
| COc1ccc(-c2ccc(S(=O)(=O)Nc3cccc(C)n3)cc2)cc1 [Example 161] | – | – | 90.3 | 22.5 | – |
| COc1ccc(NS(=O)(=O)c2sc3ccc(Cl)cc3c2C)nn1 [Example 68] | – | – | 100 | 8.3 | – |
| Cc1cccc(NS(=O)(=O)N2CCC(c3ccc(C#N)cc3)CC2)n1 [Example 310] | – | 18 | – | – | 100 |
| Cc1cccc(NS(=O)(=O)c2ccc(-c3cccc(C(C)C)c3)cc2C)n1 [Example 193] | – | – | 78 | 39 | – |
| Cc1cccc(NS(=O)(=O)c2ccc(C(F)(F)F)cc2)n1 [Example 35] | – | – | 98 | 108 | – |

| SMILES | inhibition at 0.1 µM (11β-hsd-1 enzyme [1]; [3]) [%] | Ki (11β-hsd-1 enzyme [2]; apparent Ki, 11β-hsd-1 enzyme) [nM] | inhibition at 0.1 µM (11β-hsd-1 enzyme [1]; [4]) [%] | Ki (11β-hsd-1 enzyme [2]) [nM] | inhibition at 0.1 µM (11β-hsd-1 enzyme [1]; read-out: % inh @ 0.1 uM, compound at 0.1 uM) [%] |
| --- | --- | --- | --- | --- | --- |
| Cc1cccc(NS(=O)(=O)c2ccc(-c3ccc(CC(C)C)cc3)cc2C)n1 [Example 210] | 74 | 47 | – | – | – |
| COc1ccc(-c2ccc(S(=O)(=O)Nc3cccc(C)n3)c(C)c2)cc1 [Example 169] | – | – | 93 | 19 | – |
| Cc1cccc(NS(=O)(=O)c2ccc(-c3ccccc3)cc2C)n1 [Example 166] | – | – | 95 | 12 | – |
| Cc1c(S(=O)(=O)Nc2cccc(CCO)n2)sc2ccc(Cl)cc12 [Example 115, 5-Chloro-3-methyl-benzo[b]thiophene-2-sulfonic acid [6-(2-hydroxy-ethyl)-pyridin-2-yl]-amide] | – | – | 93.6 | 4.8 | – |
| Cc1cccc(NS(=O)(=O)c2ccc(-c3cccc(C(C)C)c3)c(C)c2)n1 [Example 236] | 81 | 110 | – | – | – |
| Cc1cccc(NS(=O)(=O)c2ccc(-c3ccc(F)cc3)cc2C)n1 [Example 279] | 100 | 4.5 | – | – | – |
| O=S(=O)(Nc1ccc2ccccc2n1)N1CCC(c2ccccn2)CC1 [Example 316] | 67.4 | 67 | – | – | – |
| N#Cc1ccc(-c2ccc(S(=O)(=O)Nc3ccc4ccccc4n3)cc2)cc1 [Example 87] | – | – | 100 | 3.6 | – |
| Cc1cccc(NS(=O)(=O)c2sc3ccc(C#N)cc3c2C)n1 [Example 91] | – | – | 100 | 2.3 | – |
| CCc1cccc(NS(=O)(=O)c2sc(-c3ccc(C#N)cc3)nc2C)n1 [Example 119] | – | – | 95 | 3.1 | – |
| Cc1cccc(NS(=O)(=O)c2ccc(-c3cccc(O)c3)cc2C)n1 [Example 185] | – | – | 71 | 46 | – |
| Cc1cccc(NS(=O)(=O)c2ccc(C(C)C)cc2)n1 [Example 70] | – | – | 78.7 | 216 | – |
| CCN(CC)C(=O)Cc1cccc(NS(=O)(=O)c2sc3ccc(Cl)cc3c2C)n1 [Example 19, 2-[6-(5-Chloro-3-methyl-benzo[b]thiophene-2-sulfonylamino)-pyridin-2-yl]-N,N-diethyl-acetamide] | – | – | 96.9 | 4.8 | – |
| Cc1cccc(NS(=O)(=O)N2CCC(c3ccc(F)cc3)CC2)n1 [Example 301] | 100 | 4.9 | – | – | – |
| CCCCc1ccc(-c2ccc(S(=O)(=O)Nc3cccc(C)n3)c(C)c2)cc1 [Example 209] | 88 | 18 | – | – | – |
| Cc1cccc(NS(=O)(=O)c2ccc(-c3cccc(Cl)c3)c(C)c2)n1 [Example 213] | 77 | 31 | – | – | – |
| Cc1cccc(NS(=O)(=O)c2ccc(-c3ccc(C#N)c(C)c3)cc2)n1 [Example 273] | 95.5 | 5.3 | – | – | – |
| Cc1cccc(NS(=O)(=O)c2ccc(-c3ccc(F)cc3)c(C)c2)n1 [Example 280] | 91 | 15 | – | – | – |
| Cc1cc(C)nc(NS(=O)(=O)c2ccc(-c3ccccc3)cc2)c1 [Example 65] | – | – | 59.4 | 18.3 | – |
| COc1ccc(-c2ccc(S(=O)(=O)Nc3cccc(C)n3)cc2C)cc1 [Example 216] | 73 | 43 | – | – | – |
| Cc1cccc(NS(=O)(=O)c2ccc(-c3ccc(F)cc3F)cc2C)n1 [Example 179] | – | – | 95 | 6.2 | – |
| N#Cc1ccc(-c2ccc(S(=O)(=O)Nc3ccc4occc4n3)cc2)cc1 [Example 86] | – | – | 100 | 14.3 | – |
| Cc1cccc(NS(=O)(=O)N2CCC(Oc3ccccc3)CC2)n1 [Example 314] | 71.8 | 52 | – | – | – |
| Cc1cc(C)nc(NS(=O)(=O)c2ccc(-c3ccc(C#N)cc3)cc2)c1 [Example 96] | – | – | 100 | 7 | – |
| Cc1cccc(NS(=O)(=O)c2ccc(-c3ccc(C#N)cc3)c(F)c2)n1 [Example 284, 4′-Cyano-2-fluoro-biphenyl-4-sulfonic acid (6-methyl-pyridin-2-yl)-amide] | 100 | 3.4 | – | – | – |
| Cc1cccc(NS(=O)(=O)c2ccc(-c3cc(F)ccc3F)cc2C)n1 [Example 202] | 88 | 14 | – | – | – |
| Cc1cccc(NS(=O)(=O)c2ccc(-c3cccc(CO)c3)c(C)c2)n1 [Example 226] | 94 | 460 | – | – | – |
